Data: ChEMBL document CHEMBL4706752 (ACS Med Chem Lett, 2021)

Experiments:
Cytochrome P450 2C19 = Cytochrome P450 2C19 (Homo sapiens, UniProt P33261); assay: Inhibition of CYP2C19 (unknown origin); type: ADME
Cytochrome P450 3A4 = Cytochrome P450 3A4 (Homo sapiens, UniProt P08684); assay: Inhibition of CYP3A4 (unknown origin); type: ADME
[1] = Metabolic stability in mouse liver microsomes assessed as compound remaining after 10 mins; type: ADME, Microsome; conditions: read-out: Stabilty
Cytochrome P450 2C9 = Cytochrome P450 2C9 (Homo sapiens, UniProt P11712); assay: Inhibition of CYP2C9 (unknown origin); type: ADME
Cytochrome P450 2C9, sequence (P11712 whole entry): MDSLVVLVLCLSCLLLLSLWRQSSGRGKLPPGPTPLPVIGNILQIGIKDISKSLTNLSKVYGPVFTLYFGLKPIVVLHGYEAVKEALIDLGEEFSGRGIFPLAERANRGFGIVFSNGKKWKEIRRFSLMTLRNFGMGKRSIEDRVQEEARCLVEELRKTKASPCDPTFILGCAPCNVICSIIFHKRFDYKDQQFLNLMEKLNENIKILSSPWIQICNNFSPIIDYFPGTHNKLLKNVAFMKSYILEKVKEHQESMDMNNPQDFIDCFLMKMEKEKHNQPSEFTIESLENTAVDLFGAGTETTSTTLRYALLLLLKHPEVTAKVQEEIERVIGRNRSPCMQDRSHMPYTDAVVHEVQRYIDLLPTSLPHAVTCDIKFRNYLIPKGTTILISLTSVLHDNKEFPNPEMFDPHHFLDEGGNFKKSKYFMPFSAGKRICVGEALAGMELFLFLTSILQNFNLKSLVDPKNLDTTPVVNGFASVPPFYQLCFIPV

Cytochrome P450 2C8 = target: T1, Cytochrome P450 2C8 (Homo sapiens, UniProt P10632); assay: Inhibition of CYP2C8 (unknown origin); type: ADME
T1 sequence (P10632 whole entry): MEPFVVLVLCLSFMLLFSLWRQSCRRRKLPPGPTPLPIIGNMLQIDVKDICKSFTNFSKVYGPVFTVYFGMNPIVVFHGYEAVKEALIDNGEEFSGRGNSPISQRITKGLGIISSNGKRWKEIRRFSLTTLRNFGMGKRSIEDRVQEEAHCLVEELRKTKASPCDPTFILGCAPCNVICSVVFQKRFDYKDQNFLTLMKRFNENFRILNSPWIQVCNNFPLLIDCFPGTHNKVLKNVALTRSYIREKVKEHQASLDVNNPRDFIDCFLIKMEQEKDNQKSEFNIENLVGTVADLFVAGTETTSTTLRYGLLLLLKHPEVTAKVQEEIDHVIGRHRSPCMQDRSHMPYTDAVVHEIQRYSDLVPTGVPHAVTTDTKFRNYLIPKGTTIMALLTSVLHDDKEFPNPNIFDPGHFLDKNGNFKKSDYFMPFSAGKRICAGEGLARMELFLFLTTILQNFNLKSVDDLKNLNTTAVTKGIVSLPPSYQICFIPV

[2] = target: T2, Nuclear receptor ROR-gamma (Homo sapiens, UniProt P51449); assay: Inverse agonist activity at human Gal4-fused RORgammat expressed in human Jurkat cells luciferase reporter gene assay; type: cell-based
T2 sequence (P51449 whole entry): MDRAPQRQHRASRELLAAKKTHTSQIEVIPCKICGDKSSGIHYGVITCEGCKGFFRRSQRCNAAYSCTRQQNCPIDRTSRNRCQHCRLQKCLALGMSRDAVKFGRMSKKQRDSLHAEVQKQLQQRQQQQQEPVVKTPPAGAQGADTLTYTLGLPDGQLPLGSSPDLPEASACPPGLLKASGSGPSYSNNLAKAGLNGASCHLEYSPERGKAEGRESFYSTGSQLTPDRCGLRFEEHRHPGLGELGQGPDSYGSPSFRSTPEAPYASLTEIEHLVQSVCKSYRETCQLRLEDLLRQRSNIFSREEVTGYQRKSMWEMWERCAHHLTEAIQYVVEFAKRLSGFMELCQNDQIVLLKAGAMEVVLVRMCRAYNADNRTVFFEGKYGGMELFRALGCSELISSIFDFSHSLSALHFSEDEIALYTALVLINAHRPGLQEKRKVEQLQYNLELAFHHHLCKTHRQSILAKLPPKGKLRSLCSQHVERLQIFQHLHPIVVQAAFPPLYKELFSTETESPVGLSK

[3] = Protein binding in mouse serum assessed as fraction unbound; type: ADME, cell-free; conditions: read-out: PB
[4] = target: T2, Nuclear receptor ROR-gamma; assay: Inverse agonist activity at RORgammat in human whole blood assessed as inhibition of anti-CD3/anti-CD28 monoclonal antibodies-stimulated IL-17A production measured by ELISA; type: tissue-based
[5] = Apparent permeability across apical to basolateral membrane in human Caco2 cells; type: ADME, cell-based; conditions: Caco-2
[6] = Efflux ratio of apparent permeability across basolateral to apical side over apical to basolateral side in Caco2 cells; type: ADME, cell-based; conditions: human, Caco-2
[7] = Metabolic stability in human liver microsomes assessed as compound remaining after 10 mins; type: ADME, Microsome; conditions: read-out: Stabilty
[8] = Protein binding in human serum assessed as fraction unbound; type: ADME, cell-free; conditions: read-out: PB

Cytochrome P450 2C19, sequence (P33261 whole entry): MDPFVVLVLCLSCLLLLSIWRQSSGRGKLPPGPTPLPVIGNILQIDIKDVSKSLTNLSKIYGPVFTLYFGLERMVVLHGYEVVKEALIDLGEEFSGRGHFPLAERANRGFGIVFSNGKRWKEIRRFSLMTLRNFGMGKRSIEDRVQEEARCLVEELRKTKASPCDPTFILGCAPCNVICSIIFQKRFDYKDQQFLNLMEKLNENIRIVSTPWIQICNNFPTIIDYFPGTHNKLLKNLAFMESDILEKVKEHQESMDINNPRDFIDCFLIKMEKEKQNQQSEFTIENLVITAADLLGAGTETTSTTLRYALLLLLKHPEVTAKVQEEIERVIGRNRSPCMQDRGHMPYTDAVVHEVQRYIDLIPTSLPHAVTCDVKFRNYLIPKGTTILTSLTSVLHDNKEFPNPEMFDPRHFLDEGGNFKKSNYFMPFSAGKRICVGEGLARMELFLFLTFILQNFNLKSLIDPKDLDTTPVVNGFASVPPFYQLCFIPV
Cytochrome P450 3A4, sequence (P08684 whole entry): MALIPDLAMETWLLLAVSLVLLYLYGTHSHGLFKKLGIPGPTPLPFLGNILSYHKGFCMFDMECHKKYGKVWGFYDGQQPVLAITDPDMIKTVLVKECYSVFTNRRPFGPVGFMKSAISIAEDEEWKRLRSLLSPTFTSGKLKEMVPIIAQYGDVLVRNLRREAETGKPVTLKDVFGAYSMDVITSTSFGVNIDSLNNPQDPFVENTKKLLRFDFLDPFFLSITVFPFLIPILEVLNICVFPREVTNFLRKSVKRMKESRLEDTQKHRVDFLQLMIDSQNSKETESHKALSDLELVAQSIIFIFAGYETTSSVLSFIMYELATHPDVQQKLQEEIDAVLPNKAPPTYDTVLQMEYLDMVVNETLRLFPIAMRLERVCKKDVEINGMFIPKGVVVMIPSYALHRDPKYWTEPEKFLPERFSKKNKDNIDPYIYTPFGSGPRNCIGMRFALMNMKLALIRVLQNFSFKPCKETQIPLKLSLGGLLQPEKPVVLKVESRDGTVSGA

| Compound | IC50 (Cytochrome P450 2C19) [µM] | IC50 (Cytochrome P450 3A4) [µM] | remaining at 10 min [1] [%] | IC50 (Cytochrome P450 2C9) [µM] | IC50 (Cytochrome P450 2C8) [µM] | EC50 [2] [nM] | fraction unbound [3] | EC50 [4] [nM] | Papp A→B [5] [×10⁻⁶ cm/s] | efflux ratio [6] | remaining at 10 min [7] [%] | fraction unbound [8] |
| --- | --- | --- | --- | --- | --- | --- | --- | --- | --- | --- | --- | --- |
| CC(C)(O)C(=O)N[C@@H]1CC[C@@]2(S(=O)(=O)c3ccc(F)cc3)c3ccc(C(F)(C(F)(F)F)C(F)(F)F)nc3CC[C@@H]12 | > 20 | > 20 | 100 | 3.2 | 8.3 | 3.9 | 0.023 | 67 | 18 | 0.5 | 100 |  |
| C[C@](O)(CS(C)(=O)=O)C(=O)N[C@@H]1CC[C@@]2(S(=O)(=O)c3ccc(F)cc3)c3ccc(C(F)(C(F)(F)F)C(F)(F)F)cc3CC[C@@H]12 | 15 | > 20 | 83 | 9.2 | 13 | 5.5 | 0.002 | 120 | 7.6 | 0.9 | 89 |  |
| N#CCCN1C(=O)CC[C@H]1C(=O)N1CC[C@@]2(S(=O)(=O)c3ccc(F)cc3)c3ccc(C(F)(C(F)(F)F)C(F)(F)F)cc3CC[C@@H]12 |  | 10 | 85 |  | 13 |  | 0.017 |  | 17 |  | 92 | 0.018 |
| N#CCCN1C(=O)CC[C@H]1C(=O)N1CC[C@@]2(S(=O)(=O)c3ccc(F)cc3)c3ncc(C(F)(C(F)(F)F)C(F)(F)F)cc3CC[C@@H]12 |  | > 20 | 82 |  | > 20 |  | 0.16 |  | 9.4 |  | 83 | 0.2 |
| O=C(C1CCS(=O)(=O)CC1)N1CC[C@@]2(S(=O)(=O)c3ccc(F)cc3)c3ncc(C(F)(C(F)(F)F)C(F)(F)F)cc3CC[C@@H]12 |  |  | 96 |  |  | 71 |  |  |  |  | 100 |  |
| O=C(N[C@@H]1CC[C@@]2(S(=O)(=O)c3ccc(F)cc3)c3ccc(C(F)(C(F)(F)F)C(F)(F)F)nc3CC[C@@H]12)C1CCS(=O)(=O)CC1 | > 20 | > 20 | 82 | 9.5 | 16 | 8.4 | 0.022 | 67 | 8.1 | 2.2 | 100 |  |
| CC(C)(O)CC(=O)N[C@@H]1CC[C@@]2(S(=O)(=O)c3ccc(F)cc3)c3ccc(C(F)(C(F)(F)F)C(F)(F)F)nc3CC[C@@H]12 | 16 | 9.1 | 87 | 8.5 | 6.3 | 6 | 0.018 | 101 | 12 | 0.5 | 100 |  |
| N#CCCN1C(=O)CC[C@H]1C(=O)N1CC[C@@]2(S(=O)(=O)c3ccc(F)cc3)c3ccc(C(F)(C(F)(F)F)C(F)(F)F)nc3CC[C@@H]12 |  | 19 | 83 |  | > 20 | 24 | 0.051 | 31 | 19 | 1.7 | 100 | 0.071 |
| N#CCCN1C(=O)CC[C@H]1C(=O)N1CC[C@@]2(S(=O)(=O)c3ccc(F)cc3)c3cnc(C(F)(C(F)(F)F)C(F)(F)F)cc3CC[C@@H]12 |  | 12 | 69 |  | > 20 |  | 0.068 |  | 12 |  | 100 | 0.12 |
| O=C(C1CCS(=O)(=O)CC1)N1CC[C@@]2(S(=O)(=O)c3ccc(F)cc3)c3ccc(C(F)(C(F)(F)F)C(F)(F)F)nc3CC[C@@H]12 |  | > 20 | 91 |  | 16 |  | 0.05 |  | 23 |  | 100 |  |
| O=C(C1CCS(=O)(=O)CC1)N1CC[C@@]2(S(=O)(=O)c3ccc(F)cc3)c3ccc(C(F)(C(F)(F)F)C(F)(F)F)cc3CC[C@@H]12 |  | 13 | 100 |  | 9.4 |  | 0.068 |  | 13 |  | 93 | 0.008 |
| O=C(N[C@@H]1CC[C@@]2(S(=O)(=O)c3ccc(F)cc3)c3ccc(C(F)(C(F)(F)F)C(F)(F)F)cc3CC[C@@H]12)C1CCS(=O)(=O)CC1 | > 20 | 5.8 | 95 | 5.5 | 6.5 | 8.7 | 0.003 | 50 | 7.3 | 0.5 | 100 |  |
| CC(C)(O)CC(=O)N[C@@H]1CC[C@@]2(S(=O)(=O)c3ccc(F)cc3)c3ccc(C(F)(C(F)(F)F)C(F)(F)F)cc3CC[C@@H]12 | 7.7 | 11 | 86 | 12 | 12 |  | 0.006 |  | 15 |  | 97 | 0.002 |
| C[C@@](O)(CS(C)(=O)=O)C(=O)N[C@@H]1CC[C@@]2(S(=O)(=O)c3ccc(F)cc3)c3ccc(C(F)(C(F)(F)F)C(F)(F)F)cc3CC[C@@H]12 | 15 | > 20 | 84 | 12 | 5 | 2.5 | 0.004 | 39 | 6.4 | 0.5 | 98 |  |
| O=C(C1CCS(=O)(=O)CC1)N1CC[C@@]2(S(=O)(=O)c3ccc(F)cc3)c3cnc(C(F)(C(F)(F)F)C(F)(F)F)cc3CC[C@@H]12 |  |  | 49 |  |  | 17 |  | 23 |  |  | 92 |  |
| C[C@](O)(CS(C)(=O)=O)C(=O)N[C@@H]1CC[C@@]2(S(=O)(=O)c3ccc(F)cc3)c3ccc(C(F)(C(F)(F)F)C(F)(F)F)nc3CC[C@@H]12 |  |  | 100 |  |  |  |  |  |  |  | 97 |  |
